Results published in paper PMC8648761, “Reductive inactivation of the hemiaminal pharmacophore for resistance against tetrahydroisoquinoline antibiotics” (Nature Communications, 2021).

What was measured:
SDR-Pb = target: T1, SDR-Pb (Paenibacillus rhizosphaerae, UniProt A0A1R1EZ79); assay: HPLC of reduction to […]; assay type: biochemical; conditions: 290 uM ET-743, 1 mM NADPH, Tris-HCl pH 8.0, 30 C, 8 h
T1 construct: gene BK138_00365; recombinant in E. coli BL21(DE3), His-tagged

SDR-Cs = target: T2, SDR-Cs (Chlorella sorokiniana, UniProt A0A2P6TRY4); assay: HPLC of reduction to […]; assay type: biochemical; conditions: 290 uM ET-743, 1 mM NADPH, Tris-HCl pH 8.0, 30 C, 8 h
T2 construct: gene C2E21_4667; recombinant in E. coli BL21(DE3), His-tagged

[1] = tested on: T3, SDR-Rm (Rhizobium mesoamericanum); assay: HPLC of reduction to […]; assay type: biochemical; conditions: […] ET-[…] NADPH, Tris-HCl pH […] C, […] h
T3 construct: recombinant in E. coli BL21(DE3), His-tagged

homW = target: T4, homW (Streptomyces lusitanus, UniProt A0A896A0X3); assay: HPLC and MS of reduction to […]; assay type: biochemical; conditions: […] ET-[…] NADPH, Tris-HCl pH […] C, […] h
T4 sequence (A0A896A0X3 1-304): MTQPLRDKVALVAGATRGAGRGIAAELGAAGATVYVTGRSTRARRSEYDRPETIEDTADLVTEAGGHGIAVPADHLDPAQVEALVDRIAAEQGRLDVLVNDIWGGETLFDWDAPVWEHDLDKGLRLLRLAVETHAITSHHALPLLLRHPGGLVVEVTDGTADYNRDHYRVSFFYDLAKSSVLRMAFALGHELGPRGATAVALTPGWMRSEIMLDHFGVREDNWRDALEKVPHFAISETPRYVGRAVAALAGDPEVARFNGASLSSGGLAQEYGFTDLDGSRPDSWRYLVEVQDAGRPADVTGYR

homO1a = target: T5, homO1a (Streptomyces lavendulae, UniProt A0A895ZRD1); assay: HPLC and MS of reduction to […]; assay type: biochemical; conditions: […] ET-[…] NADPH, Tris-HCl pH […] C, […] h
T5 sequence (A0A895ZRD1 1-325): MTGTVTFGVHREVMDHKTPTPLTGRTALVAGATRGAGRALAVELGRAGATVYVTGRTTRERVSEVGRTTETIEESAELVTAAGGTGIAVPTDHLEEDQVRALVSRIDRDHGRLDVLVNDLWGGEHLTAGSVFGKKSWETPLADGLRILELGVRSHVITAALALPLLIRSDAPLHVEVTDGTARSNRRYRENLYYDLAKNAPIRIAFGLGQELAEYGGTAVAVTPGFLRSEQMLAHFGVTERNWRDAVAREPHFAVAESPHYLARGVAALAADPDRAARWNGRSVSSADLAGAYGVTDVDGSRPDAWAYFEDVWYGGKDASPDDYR

SfmO1 = SfmO1 (Streptomyces lavendulae, UniProt B0CN12); assay: HPLC and MS of reduction to […]; assay type: biochemical; conditions: 290 uM ET-743, 1 mM NADPH, Tris-HCl pH 8.0, 30 C, 8 h
homO1b = target: T6, homO1b (Streptomyces lavendulae, UniProt A0A896A5A8); assay: HPLC and MS of reduction to […]; assay type: biochemical; conditions: […] ET-[…] NADPH, Tris-HCl pH […] C, […] h
T6 sequence (A0A896A5A8 1-308): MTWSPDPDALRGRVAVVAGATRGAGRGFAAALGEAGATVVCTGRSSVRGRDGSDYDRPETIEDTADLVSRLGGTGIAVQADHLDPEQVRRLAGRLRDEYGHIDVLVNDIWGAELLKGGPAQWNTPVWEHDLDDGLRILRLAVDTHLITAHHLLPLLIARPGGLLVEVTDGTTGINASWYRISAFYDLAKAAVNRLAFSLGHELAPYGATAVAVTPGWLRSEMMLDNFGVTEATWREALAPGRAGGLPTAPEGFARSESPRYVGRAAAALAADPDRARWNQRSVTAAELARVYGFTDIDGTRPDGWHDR

NapW [2] = target: T7, NapW (Streptomyces lusitanus, UniProt S4TKM8); assay: HPLC and MS of reduction to […]; assay type: biochemical; conditions: 290 uM ET-743, 1 mM NADPH, Tris-HCl pH 8.0, 30 C, 8 h
T7 construct: recombinant in E. coli BL21(DE3), His-tagged, Ni-NTA (pET-28a or pET-37b)

SDR-Mb = target: T8, SDR-Mb (Myxococcales bacterium, UniProt A0A1M3NHK2); assay: HPLC of reduction to […]; assay type: biochemical; conditions: […] ET-[…] NADPH, Tris-HCl pH […] C, […] h
T8 construct: recombinant in E. coli BL21(DE3), His-tagged
T8 sequence (A0A1M3NHK2 1-336): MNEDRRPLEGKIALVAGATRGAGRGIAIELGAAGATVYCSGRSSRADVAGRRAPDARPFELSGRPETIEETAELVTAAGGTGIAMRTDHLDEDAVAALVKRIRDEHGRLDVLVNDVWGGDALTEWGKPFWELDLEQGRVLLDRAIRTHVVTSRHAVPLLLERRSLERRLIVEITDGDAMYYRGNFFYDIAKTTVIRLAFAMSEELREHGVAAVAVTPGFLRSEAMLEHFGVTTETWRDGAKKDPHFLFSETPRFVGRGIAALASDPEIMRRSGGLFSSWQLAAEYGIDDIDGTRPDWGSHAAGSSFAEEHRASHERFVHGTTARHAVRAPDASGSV

SfmC = target: T9, SfmC (Streptomyces lavendulae, UniProt B0CN27); assay: MS of dual Pictet-Spengler product […]; assay type: biochemical; conditions: 1 mM substrate, 0.5 mM myristoyl-Ala-glycinaldehyde, 1 mM ATP, MgCl2, MnCl2, NADH, HEPES pH 7.0, 30 C, 2 h
T9 construct: NRPS

NapW [3] = target: T7, NapW; assay: X-ray crystal structure (co-crystallisation); assay type: binding; conditions: co-crystallised with 5 mM NADPH; modelled as NADP+; Rossmann fold site

T7 sequence (S4TKM8 entry or part of it): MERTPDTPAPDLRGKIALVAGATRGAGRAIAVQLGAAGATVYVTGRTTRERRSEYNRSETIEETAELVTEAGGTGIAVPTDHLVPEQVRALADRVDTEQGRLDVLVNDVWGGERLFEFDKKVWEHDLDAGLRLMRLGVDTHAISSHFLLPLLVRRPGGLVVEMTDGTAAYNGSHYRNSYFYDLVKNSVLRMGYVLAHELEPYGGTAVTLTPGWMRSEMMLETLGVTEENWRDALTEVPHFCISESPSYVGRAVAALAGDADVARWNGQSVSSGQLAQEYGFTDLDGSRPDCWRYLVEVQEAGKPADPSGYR
Chain of SfmO1 (B0CN12 entry or part of it): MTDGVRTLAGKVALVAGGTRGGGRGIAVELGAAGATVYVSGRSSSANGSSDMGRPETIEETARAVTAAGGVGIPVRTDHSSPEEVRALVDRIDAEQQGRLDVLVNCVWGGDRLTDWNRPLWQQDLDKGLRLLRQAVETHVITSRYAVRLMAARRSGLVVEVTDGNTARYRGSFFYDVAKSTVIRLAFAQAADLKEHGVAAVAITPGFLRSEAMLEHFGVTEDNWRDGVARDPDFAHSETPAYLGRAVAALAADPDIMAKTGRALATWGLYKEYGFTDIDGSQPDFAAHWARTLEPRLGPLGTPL
T1 sequence (A0A1R1EZ79 entry or part of it): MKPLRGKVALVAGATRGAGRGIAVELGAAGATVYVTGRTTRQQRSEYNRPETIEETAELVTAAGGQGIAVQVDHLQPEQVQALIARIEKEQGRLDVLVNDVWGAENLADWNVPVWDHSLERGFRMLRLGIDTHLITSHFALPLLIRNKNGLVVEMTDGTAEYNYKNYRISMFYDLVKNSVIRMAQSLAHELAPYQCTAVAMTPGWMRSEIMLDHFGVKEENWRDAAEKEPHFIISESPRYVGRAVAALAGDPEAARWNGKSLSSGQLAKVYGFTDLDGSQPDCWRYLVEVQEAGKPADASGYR
T9 sequence (B0CN27 entry or part of it): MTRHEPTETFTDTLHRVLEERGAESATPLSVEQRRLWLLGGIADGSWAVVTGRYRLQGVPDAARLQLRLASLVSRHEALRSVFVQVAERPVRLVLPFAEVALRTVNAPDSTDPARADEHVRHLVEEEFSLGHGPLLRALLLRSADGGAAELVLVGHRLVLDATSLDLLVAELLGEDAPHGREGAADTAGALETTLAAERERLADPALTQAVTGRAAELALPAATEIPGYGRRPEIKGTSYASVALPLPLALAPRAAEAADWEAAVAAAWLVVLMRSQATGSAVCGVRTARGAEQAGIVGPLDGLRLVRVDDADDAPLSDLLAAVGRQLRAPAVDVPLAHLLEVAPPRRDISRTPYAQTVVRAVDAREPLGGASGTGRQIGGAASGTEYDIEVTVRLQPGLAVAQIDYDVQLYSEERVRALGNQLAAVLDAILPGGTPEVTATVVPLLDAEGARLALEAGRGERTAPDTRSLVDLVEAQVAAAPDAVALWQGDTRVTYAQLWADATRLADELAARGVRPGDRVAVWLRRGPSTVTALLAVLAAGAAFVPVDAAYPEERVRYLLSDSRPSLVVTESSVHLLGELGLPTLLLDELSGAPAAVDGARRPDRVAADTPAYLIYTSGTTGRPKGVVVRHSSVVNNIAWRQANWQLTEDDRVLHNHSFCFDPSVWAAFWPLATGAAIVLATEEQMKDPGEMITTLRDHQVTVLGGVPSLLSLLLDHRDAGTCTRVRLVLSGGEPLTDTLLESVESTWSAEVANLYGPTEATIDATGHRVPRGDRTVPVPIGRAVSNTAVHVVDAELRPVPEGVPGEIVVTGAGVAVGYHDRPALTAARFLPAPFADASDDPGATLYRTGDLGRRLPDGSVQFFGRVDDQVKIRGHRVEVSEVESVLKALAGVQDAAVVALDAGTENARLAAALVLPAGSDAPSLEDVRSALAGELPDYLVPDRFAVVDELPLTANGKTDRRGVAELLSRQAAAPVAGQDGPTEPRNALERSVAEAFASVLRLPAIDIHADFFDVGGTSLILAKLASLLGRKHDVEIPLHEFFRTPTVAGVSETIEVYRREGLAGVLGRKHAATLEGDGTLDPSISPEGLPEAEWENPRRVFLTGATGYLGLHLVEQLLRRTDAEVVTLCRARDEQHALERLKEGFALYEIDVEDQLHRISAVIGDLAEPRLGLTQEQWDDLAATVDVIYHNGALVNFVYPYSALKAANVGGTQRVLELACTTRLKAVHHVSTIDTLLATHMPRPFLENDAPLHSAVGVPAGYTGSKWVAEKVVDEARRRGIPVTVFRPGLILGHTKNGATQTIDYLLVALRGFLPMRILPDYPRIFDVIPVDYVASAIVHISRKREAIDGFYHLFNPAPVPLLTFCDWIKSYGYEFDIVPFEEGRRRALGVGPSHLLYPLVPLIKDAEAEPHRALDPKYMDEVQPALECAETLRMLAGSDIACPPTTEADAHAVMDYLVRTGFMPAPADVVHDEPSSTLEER
T2 sequence (A0A2P6TRY4 entry or part of it): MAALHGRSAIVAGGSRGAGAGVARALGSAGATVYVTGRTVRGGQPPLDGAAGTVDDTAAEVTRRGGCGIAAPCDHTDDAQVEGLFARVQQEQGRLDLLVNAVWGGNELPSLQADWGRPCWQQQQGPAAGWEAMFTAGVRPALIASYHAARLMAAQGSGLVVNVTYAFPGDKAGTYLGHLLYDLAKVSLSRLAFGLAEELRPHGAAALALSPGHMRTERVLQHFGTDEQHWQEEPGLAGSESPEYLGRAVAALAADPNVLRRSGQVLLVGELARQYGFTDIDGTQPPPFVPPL
T3 sequence (Z9SGJ4VC86 1-304): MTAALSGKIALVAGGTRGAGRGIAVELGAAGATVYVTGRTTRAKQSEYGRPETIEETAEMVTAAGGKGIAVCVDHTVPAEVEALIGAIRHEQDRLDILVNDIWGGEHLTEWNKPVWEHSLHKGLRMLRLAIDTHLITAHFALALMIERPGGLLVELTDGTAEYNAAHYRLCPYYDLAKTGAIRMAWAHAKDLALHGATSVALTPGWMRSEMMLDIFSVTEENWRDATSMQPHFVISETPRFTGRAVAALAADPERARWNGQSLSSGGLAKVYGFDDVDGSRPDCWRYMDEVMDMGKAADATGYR

Compound: COc1cc2c(cc1O)CCN[C@]21CS[C@@H]2c3c(OC(C)=O)c(C)c4c(c3[C@H](COC1=O)N1[C@@H]2[C@H]2c3c(cc(C)c(OC)c3O)C[C@@H]([C@@H]1O)N2C)OCO4 [compound 7, ET-743]
- HPLC of reduction to 8 (SDR-Pb): most proteins can catalyze reductive reaction of THIQ compounds except that SDR-Li and SDR-Ss
- HPLC of reduction to 8 (SDR-Cs): most proteins can catalyze reductive reaction of THIQ compounds except that SDR-Li and SDR-Ss
- HPLC of reduction to 8 [1]: most proteins can catalyze reductive reaction of THIQ compounds except that SDR-Li and SDR-Ss
- HPLC and MS of reduction to 8 (homW): each of the five SDRs originated from NDM or SFM-A producer could effectively catalyze
- HPLC and MS of reduction to 8 (homO1a): each of the five SDRs originated from NDM or SFM-A producer could effectively catalyze
- HPLC and MS of reduction to 8 (SfmO1): each of the five SDRs originated from NDM or SFM-A producer could effectively catalyze
- HPLC and MS of reduction to 8 (homO1b): each of the five SDRs originated from NDM or SFM-A producer could effectively catalyze
- HPLC and MS of reduction to 8 (NapW [2]): each of the five SDRs originated from NDM or SFM-A producer could effectively catalyze
- HPLC of reduction to 8 (SDR-Mb): most proteins can catalyze reductive reaction of THIQ compounds except that SDR-Li and SDR-Ss

Compound: COc1c(C)cc(C[C@H](N)C(=O)O)cc1O [3-OH-5-Me-O-Me-Tyr]
- MS of dual Pictet-Spengler product 16 (SfmC): Dual Pictet-Spengler reactions catalyzed SfmC

Compound: NC(=O)c1ccc[n+]([C@@H]2O[C@H](COP(=O)(O)OP(=O)(O)OC[C@H]3O[C@@H](n4cnc5c(N)ncnc54)[C@H](OP(=O)(O)O)[C@@H]3O)[C@@H](O)[C@H]2O)c1 [NADP^+]
- X-ray crystal structure (co-crystallisation) (NapW [3]): We further obtained the structure of NapW·NADP^+ binary complex by co-crystallizing NapW, NADP(H)
